Data from patent US20250340538A1, “IMIDAZOLONE DERIVATIVES AS INHIBITORS OF PROTEIN KINASES IN PARTICULAR DYRK1A, CLK1 AND/OR CLK4” (PERHA PHARMACEUTICALS, priority 2021, published 2025).
Where two headings read alike, the source gives them in different places.

What was measured:
Assay type in all cases: biochemical
CLK1 = molecular target: T1, CLK1 (Homo sapiens, UniProt P49759); test: Radiometric protein kinase assay (33PanQinase Activity Assay), CLK1
T1 construct: GST-fusion or His-tag (not specified per kinase); purchased ProQinase GmbH; host or cells: Sf9 insect cells or E. coli (not specified per kinase)
T1 sequence (P49759 whole entry, the tested form may be a part): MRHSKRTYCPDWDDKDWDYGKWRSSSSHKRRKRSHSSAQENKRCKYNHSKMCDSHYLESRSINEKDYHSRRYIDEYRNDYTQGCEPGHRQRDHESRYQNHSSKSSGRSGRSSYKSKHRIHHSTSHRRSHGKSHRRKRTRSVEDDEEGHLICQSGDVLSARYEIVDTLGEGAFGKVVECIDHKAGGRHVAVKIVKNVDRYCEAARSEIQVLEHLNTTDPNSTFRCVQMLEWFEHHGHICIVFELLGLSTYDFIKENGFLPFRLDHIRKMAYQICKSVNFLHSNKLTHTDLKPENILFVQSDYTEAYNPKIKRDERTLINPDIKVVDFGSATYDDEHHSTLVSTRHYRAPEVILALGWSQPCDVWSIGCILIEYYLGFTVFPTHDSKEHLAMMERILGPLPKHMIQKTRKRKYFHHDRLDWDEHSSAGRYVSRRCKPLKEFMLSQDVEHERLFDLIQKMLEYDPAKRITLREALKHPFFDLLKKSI
In short: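 IC50 derived from dose-response curves over 10 concentrations (10 μM–30 nM, 1% DMSO final) by scintillation counting of 33Pi incorporation. Reactions with [γ-33P]-ATP ran 60 min at 30 °C using human recombinant kinases expressed in Sf9 or E. coli as tagged full-length proteins or active fragments.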

CLK4 = molecular target: T2, CLK4 (Homo sapiens, UniProt Q9HAZ1); test: Radiometric protein kinase assay (33PanQinase Activity Assay), CLK4; settings: read-out: IC50 on CLK4 (most potent CLK4 inhibitors)
T2 construct: GST-fusion or His-tag (not specified per kinase); purchased ProQinase GmbH; host or cells: Sf9 insect cells or E. coli (not specified per kinase)
T2 sequence (Q9HAZ1 whole entry, the tested form may be a part): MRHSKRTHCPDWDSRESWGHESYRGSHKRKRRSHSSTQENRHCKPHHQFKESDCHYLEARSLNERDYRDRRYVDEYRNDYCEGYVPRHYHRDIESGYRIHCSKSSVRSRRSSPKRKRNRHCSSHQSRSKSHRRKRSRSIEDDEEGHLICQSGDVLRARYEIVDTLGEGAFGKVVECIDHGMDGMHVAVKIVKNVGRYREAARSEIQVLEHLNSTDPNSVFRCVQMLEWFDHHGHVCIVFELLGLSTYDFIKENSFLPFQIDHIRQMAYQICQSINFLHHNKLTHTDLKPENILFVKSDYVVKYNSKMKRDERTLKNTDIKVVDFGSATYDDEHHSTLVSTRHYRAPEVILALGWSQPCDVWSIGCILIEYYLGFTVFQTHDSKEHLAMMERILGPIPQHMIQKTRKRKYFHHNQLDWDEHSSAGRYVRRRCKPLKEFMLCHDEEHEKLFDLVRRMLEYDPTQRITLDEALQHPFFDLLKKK
Description: (§1) Assays were performed by ProQinase GmbH (Engesserstr. 4, D-79108 Freiburg, Germany. www.proqinase.com). The IC50 profile of all compounds was determined using 12 protein kinases (CDK2/cyclin E, CK1ε, CLK1, 2, 3, 4, DYRK1A, 1B, 2, 3, 4, GSK3β).
(§2) The compounds were provided as […] in 100% DMSO. Prior to testing, the 1 μM stock solutions were subjected to a serial, semi-logarithmic dilution using 100% DMSO as a solvent. […] In the process, 90 μl H2O were added to each well of each compound dilution plate. To minimize potential precipitation, the H2O was added to each plate only a few minutes before the transfer of the compound solutions into the assay plates. The plate was shaken thoroughly, resulting in a compound dilution plate/10% DMSO.
(§3) For the assays (see below), 5 μL solution from each well of the compound dilution plates/10% DMSO were transferred into the assay plates. The final volume of the assay was 50 μL. All compounds were tested at 10 final assay concentrations in the range from 10 μM to 30 nM. The final DMSO concentration in the reaction cocktails was 1% in all cases.
(§4) All protein kinases provided by ProQinase were expressed in Sf9 insect cells or in E. coli as recombinant GST-fusion proteins or His-tagged proteins, either as full-length or enzymatically active fragments. All kinases were produced from human cDNAs and purified by either GSH-affinity chromatography or immobilized metal. Affinity tags were removed from a number of kinases during purification. The purity of the protein kinases was examined by SDS-PAGE/Coomassie staining, the identity was checked by mass spectroscopy.
(§5) A radiometric protein kinase assay (33PanQinase® Activity Assay) was used for measuring the kinase activity of the 12 protein kinases. All kinase assays were performed in 96-well FlashPlates™ from PerkinElmer (Boston, MA, USA) in a 50 μL reaction volume. The reaction cocktail was pipetted in four steps in the following order: • 25 μL of assay buffer (standard buffer/[γ-^33P]-ATP), • 10 μL of ATP solution (in H2O), • 5 μL of test compound (in 10% DMSO), • 10 μL of enzyme/substrate mixture.
(§6) The reaction cocktails were incubated at 30° C. for 60 minutes. The reaction was stopped with 50 μL of 2% (v/v) H3PO4, plates were aspirated and washed two times with 200 μL 0.9% (w/v) NaCl. Incorporation of ^33Pi was determined with a microplate scintillation counter (Microbeta, Wallac). The IC50 values for all compounds were calculated from the dose response curves
(§7) As a parameter for assay quality, the Z′-factor (Zhang et al., J. Biomol. Screen. 2: 67-73, 1999) for the low and high controls of each assay plate (n=8) was used. ProQinase's criterion for repetition of an assay plate is a Z′-factor below 0.4 (Iversen et al., J. Biomol. Screen. 3: 247-252, 2006).

DYRK1A = molecular target: T3, DYRK1A (Homo sapiens, UniProt Q13627); test: Radiometric protein kinase assay (33PanQinase Activity Assay), DYRK1A; settings: for Selectivity Class DYRK1A vs. CLK1: ratio of IC50 on CLK1 over IC50 on DYRK1A; for Selectivity Class DYRK1A vs. DYRK1B: ratio of IC50 on DYRK1B over IC50 on DYRK1A
T3 construct: GST-fusion or His-tag (not specified per kinase); purchased ProQinase GmbH; host or cells: Sf9 insect cells or E. coli (not specified per kinase)
In short: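 Recombinant human kinase, expressed in Sf9 or E. coli, in a radiometric [γ-33P]-ATP assay at 30 °C for 60 min. Compounds tested at 10 concentrations from 10 μM to 30 nM, 1% DMSO final. 33Pi incorporation measured by scintillation counting; IC50 from dose-response curves.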

DYRK2 = molecular target: T4, DYRK2 (Homo sapiens, UniProt Q92630); test: Radiometric protein kinase assay (33PanQinase Activity Assay), DYRK2; settings: read-out: IC50 on DYRK2 (most potent DYRK2 inhibitors)
T4 construct: GST-fusion or His-tag (not specified per kinase); purchased ProQinase GmbH; host or cells: Sf9 insect cells or E. coli (not specified per kinase)
T4 sequence (Q92630 1-601): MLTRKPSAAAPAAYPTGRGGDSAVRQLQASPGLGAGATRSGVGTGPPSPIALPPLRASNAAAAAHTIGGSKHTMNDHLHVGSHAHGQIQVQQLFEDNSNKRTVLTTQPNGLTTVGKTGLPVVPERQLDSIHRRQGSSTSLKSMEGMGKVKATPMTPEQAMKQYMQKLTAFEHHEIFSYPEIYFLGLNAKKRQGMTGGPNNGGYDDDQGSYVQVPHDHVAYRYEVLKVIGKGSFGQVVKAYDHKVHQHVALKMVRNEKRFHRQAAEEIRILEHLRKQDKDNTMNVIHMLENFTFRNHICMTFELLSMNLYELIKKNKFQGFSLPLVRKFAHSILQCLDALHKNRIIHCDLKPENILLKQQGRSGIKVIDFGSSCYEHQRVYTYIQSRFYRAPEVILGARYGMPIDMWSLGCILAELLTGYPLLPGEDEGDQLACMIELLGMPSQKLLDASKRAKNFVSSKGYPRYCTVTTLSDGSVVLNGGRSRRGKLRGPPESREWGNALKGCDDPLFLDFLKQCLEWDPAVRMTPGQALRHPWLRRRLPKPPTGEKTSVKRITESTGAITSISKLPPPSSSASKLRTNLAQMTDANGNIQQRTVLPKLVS
Description: as §1, §2, §3, §4, §5, §6, §7

DYRK4 = molecular target: T5, DYRK4 (Homo sapiens, UniProt Q9NR20); test: Radiometric protein kinase assay (33PanQinase Activity Assay), DYRK4; settings: read-out: IC50 on DYRK4 (most potent DYRK4 inhibitors)
T5 construct: GST-fusion or His-tag (not specified per kinase); purchased ProQinase GmbH; host or cells: Sf9 insect cells or E. coli (not specified per kinase)
T5 sequence (Q9NR20 1-520): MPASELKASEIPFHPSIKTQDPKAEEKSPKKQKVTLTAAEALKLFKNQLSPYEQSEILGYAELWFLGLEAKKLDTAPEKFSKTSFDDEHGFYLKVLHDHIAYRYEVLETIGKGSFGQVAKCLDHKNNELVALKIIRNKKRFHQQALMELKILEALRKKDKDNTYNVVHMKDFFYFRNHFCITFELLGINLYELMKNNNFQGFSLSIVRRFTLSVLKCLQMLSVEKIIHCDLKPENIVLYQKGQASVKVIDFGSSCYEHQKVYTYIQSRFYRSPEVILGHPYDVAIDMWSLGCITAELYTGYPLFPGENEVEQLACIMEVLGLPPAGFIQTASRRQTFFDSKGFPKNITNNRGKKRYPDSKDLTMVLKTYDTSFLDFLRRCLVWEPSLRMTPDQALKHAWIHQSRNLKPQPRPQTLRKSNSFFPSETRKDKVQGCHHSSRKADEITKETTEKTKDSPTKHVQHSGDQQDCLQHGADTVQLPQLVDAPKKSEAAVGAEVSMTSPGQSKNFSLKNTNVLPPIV
Description: as §1, §2
as §3, with “cases. […]” for “cases.”
The reaction cocktails were incubated at 30° C. for 60 minutes. […] Incorporation of ^33Pi was determined with a microplate scintillation counter (Microbeta, Wallac). The IC50 values for all compounds were calculated from the dose response curves […]

CLK2 = molecular target: T6, CLK2 (Homo sapiens, UniProt P49760); test: Radiometric protein kinase assay (33PanQinase Activity Assay), CLK2; settings: read-out: IC50 on CLK2 (most potent CLK2 inhibitors)
T6 construct: GST-fusion or His-tag (not specified per kinase); purchased ProQinase GmbH; host or cells: Sf9 insect cells or E. coli (not specified per kinase)
T6 sequence (P49760 whole entry, the tested form may be a part): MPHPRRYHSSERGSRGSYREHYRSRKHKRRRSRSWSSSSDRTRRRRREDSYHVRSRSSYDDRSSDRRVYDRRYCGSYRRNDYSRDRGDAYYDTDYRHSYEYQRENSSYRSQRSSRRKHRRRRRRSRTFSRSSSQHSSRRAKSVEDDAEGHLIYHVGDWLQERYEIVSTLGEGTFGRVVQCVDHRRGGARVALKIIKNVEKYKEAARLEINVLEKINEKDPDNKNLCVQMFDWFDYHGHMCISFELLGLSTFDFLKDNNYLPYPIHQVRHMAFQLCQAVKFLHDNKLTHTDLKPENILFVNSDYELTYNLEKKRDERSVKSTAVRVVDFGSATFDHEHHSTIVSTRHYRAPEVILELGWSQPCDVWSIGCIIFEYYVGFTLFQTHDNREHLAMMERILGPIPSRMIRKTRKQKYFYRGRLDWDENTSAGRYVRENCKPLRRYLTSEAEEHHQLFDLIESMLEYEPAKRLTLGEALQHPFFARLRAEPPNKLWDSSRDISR
Description: as §1, §2, §3, §4, §5, §6, §7

CLK3 = molecular target: T7, CLK3 (Homo sapiens, UniProt P49761); test: Radiometric protein kinase assay (33PanQinase Activity Assay), CLK3; settings: read-out: IC50 on CLK3 (most potent CLK3 inhibitors)
T7 construct: GST-fusion or His-tag (not specified per kinase); purchased ProQinase GmbH; host or cells: Sf9 insect cells or E. coli (not specified per kinase)
T7 sequence (P49761 whole entry, the tested form may be a part): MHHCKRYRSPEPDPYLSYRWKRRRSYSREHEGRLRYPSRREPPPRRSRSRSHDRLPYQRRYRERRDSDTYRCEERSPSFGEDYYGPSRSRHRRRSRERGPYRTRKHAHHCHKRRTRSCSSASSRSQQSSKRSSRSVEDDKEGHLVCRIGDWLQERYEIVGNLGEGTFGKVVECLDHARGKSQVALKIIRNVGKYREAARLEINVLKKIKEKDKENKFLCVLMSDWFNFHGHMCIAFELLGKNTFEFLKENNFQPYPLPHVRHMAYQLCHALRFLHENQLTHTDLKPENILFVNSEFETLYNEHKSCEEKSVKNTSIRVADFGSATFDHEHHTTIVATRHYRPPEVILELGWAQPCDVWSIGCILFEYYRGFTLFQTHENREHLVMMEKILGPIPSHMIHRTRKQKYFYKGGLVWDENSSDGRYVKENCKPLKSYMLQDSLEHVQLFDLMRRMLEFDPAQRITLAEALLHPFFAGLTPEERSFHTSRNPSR
Description: as §1, §2, §3, §4, §5, §6, §7

DYRK1B = molecular target: T8, DYRK1B (Homo sapiens, UniProt Q9Y463); test: Radiometric protein kinase assay (33PanQinase Activity Assay), DYRK1B; settings: read-out: IC50 on DYRK1B (most potent DYRK1B inhibitors)
T8 construct: GST-fusion or His-tag (not specified per kinase); purchased ProQinase GmbH; host or cells: Sf9 insect cells or E. coli (not specified per kinase)
T8 sequence (Q9Y463 whole entry, the tested form may be a part): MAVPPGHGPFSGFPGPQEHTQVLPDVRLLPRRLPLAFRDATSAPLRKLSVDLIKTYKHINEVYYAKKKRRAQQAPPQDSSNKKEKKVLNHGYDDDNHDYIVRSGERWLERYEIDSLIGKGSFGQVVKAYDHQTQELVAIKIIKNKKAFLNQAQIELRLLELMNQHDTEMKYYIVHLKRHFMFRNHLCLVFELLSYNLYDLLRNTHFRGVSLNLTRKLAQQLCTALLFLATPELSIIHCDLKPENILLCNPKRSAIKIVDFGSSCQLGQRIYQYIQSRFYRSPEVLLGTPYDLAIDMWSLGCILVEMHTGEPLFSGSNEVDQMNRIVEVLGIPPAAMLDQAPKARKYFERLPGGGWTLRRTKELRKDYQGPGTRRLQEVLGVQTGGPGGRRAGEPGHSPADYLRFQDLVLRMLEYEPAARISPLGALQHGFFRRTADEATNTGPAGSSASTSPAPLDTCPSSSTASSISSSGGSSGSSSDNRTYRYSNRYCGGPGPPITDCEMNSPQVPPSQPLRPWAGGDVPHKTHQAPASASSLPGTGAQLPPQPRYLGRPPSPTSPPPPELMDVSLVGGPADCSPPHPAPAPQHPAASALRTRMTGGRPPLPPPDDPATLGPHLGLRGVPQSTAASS
Description: as §1, §2, §3, §4, §5, §6, §7

DYRK3 = molecular target: T9, DYRK3 (Homo sapiens, UniProt O43781); test: Radiometric protein kinase assay (33PanQinase Activity Assay), DYRK3; settings: read-out: IC50 on DYRK3 (most potent DYRK3 inhibitors)
T9 construct: GST-fusion or His-tag (not specified per kinase); purchased ProQinase GmbH; host or cells: Sf9 insect cells or E. coli (not specified per kinase)
T9 sequence (O43781 1-588): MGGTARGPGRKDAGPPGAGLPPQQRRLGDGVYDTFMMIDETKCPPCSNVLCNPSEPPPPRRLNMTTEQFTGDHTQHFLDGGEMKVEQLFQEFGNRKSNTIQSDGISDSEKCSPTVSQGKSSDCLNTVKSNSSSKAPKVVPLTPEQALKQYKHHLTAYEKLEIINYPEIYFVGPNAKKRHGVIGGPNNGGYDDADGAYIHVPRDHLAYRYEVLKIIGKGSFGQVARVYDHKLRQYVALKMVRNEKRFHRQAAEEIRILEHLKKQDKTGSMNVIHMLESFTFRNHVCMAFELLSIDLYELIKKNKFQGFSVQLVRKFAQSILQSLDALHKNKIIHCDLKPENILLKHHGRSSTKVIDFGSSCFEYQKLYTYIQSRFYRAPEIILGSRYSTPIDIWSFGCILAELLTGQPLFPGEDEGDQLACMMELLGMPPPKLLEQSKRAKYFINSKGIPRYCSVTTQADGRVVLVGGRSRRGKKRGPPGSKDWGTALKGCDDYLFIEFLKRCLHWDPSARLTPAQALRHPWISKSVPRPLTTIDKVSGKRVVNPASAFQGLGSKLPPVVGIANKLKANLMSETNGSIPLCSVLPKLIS
Description: as §1, §2, §3, §4, §5, §6, §7

[1] = IC50 class A to E, read-out: Potency Class CLK1
[2] = class by IC50 on CLK1, from dose-response curves, read-out: Potency Class CLK1
[3] = IC50 class A to E, read-out: Potency Class DYRK1A
[4] = class by IC50 on DYRK1A, from dose-response curves, read-out: Potency Class DYRK1A
[5] = read-out: IC50 on DYRK1A (most potent DYRK1A inhibitors)

Row | Compound | IC50 (CLK1; [1]) [µM] | IC50 (CLK1; [2]) [µM] | IC50 (CLK4) [µM] | IC50 (DYRK1A; [3]) [µM] | IC50 (DYRK1A; [4]) [µM] | Selectivity Class DYRK1A vs. CLK1 (DYRK1A) | Selectivity Class DYRK1A vs. DYRK1B (DYRK1A) | IC50 (DYRK1A; [5]) [µM] | IC50 (DYRK2) [µM] | IC50 (DYRK4) [µM] | IC50 (CLK1; read-out: IC50 on CLK1 (most potent CLK1 inhibitors)) [µM] | IC50 (CLK2) [µM] | IC50 (CLK3) [µM] | IC50 (DYRK1B) [µM] | IC50 (DYRK3) [µM]
1 | O=C1NC(NC23CC4CC(CC2C4)C3)=N/C1=C\c1ccc2nccnc2c1 [Compound 16, (4Z)-2-(3-noradamantylamino)-4-(quinoxalin-6-ylmethylene)-1H-imidazol-5-one] | > 0.05 | > 0.05 | ≤ 0.01 | 0.005 to 0.01 | 0.005 to 0.01 | I (ratio of IC50 on CLK1 or DYRK1B over IC50 on DYRK1A ≥10 fold (most DYRK1A-selective compounds)) | II (ratio between 2 and 10 fold) | ≤ 0.01 | ≤ 0.25 | ≤ 0.3 |  |  |  |  | 
2 | O=C1NC(NC23CC4CC(CC(C4)C2)C3)=N/C1=C\c1ccc2ncccc2n1 [Compound 70, (4Z)-2-(1-adamantylamino)-4-(1,5-naphthyridin-2-ylmethylene)-1H-imidazol-5-one] | 0.005 to 0.01 | 0.005 to 0.01 | ≤ 0.01 | ≤ 0.005 | < 0.005 | II (ratio between 2 and 10 fold) | II (ratio between 2 and 10 fold) | ≤ 0.01 |  |  | ≤ 0.01 | ≤ 0.1 | ≤ 0.5 | ≤ 0.01 | ≤ 0.25
3 | O=C1NC(NC2CCCCC2)=N/C1=C\c1ccc2ncccc2n1 [Compound 79, (4Z)-2-(cyclohexylamino)-4-(1,5-naphthyridin-2-ylmethylene)-1H-imidazol-5-one] |  | 0.025 to 0.05 | ≤ 0.01 |  | 0.025 to 0.05 | III (ratio between 0.5 and 2 fold) | III (ratio between 0.5 and 2 fold) |  |  |  |  |  | ≤ 0.5 |  | ≤ 0.25
4 | COC[C@@H](CC(C)C)NC1=N/C(=C\c2ccc3ncccc3n2)C(=O)N1 [Compound 81, (4Z)-2-[[(1R)-1-(methoxymethyl)-3-methyl-butyl]amino]-4-(1,5-naphthyridin-2-ylmethylene)-1H-imidazol-5-one] |  | > 0.05 |  |  | > 0.05 | III (ratio between 0.5 and 2 fold) | III (ratio between 0.5 and 2 fold) |  |  |  |  |  | ≤ 0.5 |  | 
